Like-named read-outs stand apart in the source and are kept apart here.
Assays:
Type in all cases: in vivo
[1] = tested on: cabbage looper (Trichoplusia ni); test: Topical application to cabbage looper; conditions: CL, 24 hours after application
Experimental: (§1) The activity was evaluated in topical application to southern armyworm (Spodoptera eridania), Mexican bean beetle (Epilachna varivestis), large milkweed bug (Oncopeltus fasciatus), cabbage looper (Trichoplusia ni), and tobacco budworm (Heliothis virescens). Two replicates of 10 test larvae per replicate were placed in 9 cm petri dishes, each lined with a piece of filter paper and a food source. On the second or third dorsal thoracic segment of each larva was placed a 1 microliter droplet containing the desired amount of the test compound in acetone. The toxic effect of the compound was determined 24 hours after application. An insect was considered dead if it could no longer right itself and move in an oriented pattern.

[2] = tested on: southern armyworm (Spodoptera eridania); test: Foliar application, southern armyworm mortality; conditions: read-out: Mortality (% killed)
Experimental: (§2) The compounds were also tested in foliar applications at various concentrations in aqueous solutions containing 10% acetone and 0.25% emulsifier. The plants (English fava bean for pea aphid and pinto bean for the remaining species) were placed on a revolving turntable in a hood, and the test solutions were applied with a sprayer. The test solutions were applied to the upper and lower surfaces of the plant leaves while the turntable revolved 10 times (5 for upper surface and 5 for lower surface). The total spray time was approximately one minute, and the leaves were covered to runoff. In every case the lowest rate was applied first and the highest rate last. The plants were then allowed to dry. The treated leaves were removed and placed in 240 ml or 480 ml wax treated containers. Ten individuals of the appropriate species were placed in each container and the container capped. Mortality was read 48 hours post-treatment unless otherwise noted. Two replicates of ten individuals were made at each rate. Foliar evaluation used southern armyworm (Spodoptera eridania), Mexican bean beetle (Epilachna varivestis), pea aphid (Acyrthosiphon pisum), and twospotted spider mite (Tetranychus urticae).

[3] = tested on: pea aphid (Acyrthosiphon pisum); test: Foliar application, pea aphid mortality; conditions: read-out: Mortality (% killed)
Experimental: as §2

[4] = tested on: large milkweed bug (Oncopeltus fasciatus); test: Topical application to large milkweed bug; conditions: MWB, 24 hours after application
Experimental: as §1

[5] = tested on: tobacco budworm (Heliothis virescens); test: Topical application to tobacco budworm; conditions: TBW, 24 hours after application
Experimental: as §1

[6] = tested on: Mexican bean beetle (Epilachna varivestis); test: Topical application to Mexican bean beetle; conditions: MBB, 24 hours after application
Experimental: as §1

[7] = tested on: Mexican bean beetle (Epilachna varivestis); test: Foliar application, Mexican bean beetle mortality; conditions: read-out: Mortality (% killed)
Experimental: as §2

[8] = tested on: southern armyworm (Spodoptera eridania); test: Topical application to southern armyworm larvae; conditions: SAW, 24 hours after application
Experimental: as §1

[9] = tested on: twospotted spider mite (Tetranychus urticae); test: Foliar application, twospotted spider mite mortality; conditions: read-out: Mortality (% killed)
Experimental: as §2

CC1(C)[C@H](C=C(Cl)Cl)[C@@H]1C(=O)OCc1cccc2c1CCc1ccccc1-2 (relative stereo) [Ex. I (cis), (9,10-dihydro-1-phenanthryl)methyl cis-3-(2,2-dichloroethenyl)-2,2-dimethylcyclopropanecarboxylate]
LD50 [1]: 241 ng/insect
mortality at 16 ppm ([2]; SAW, foliar, 48 hours): 10%
mortality at 32 ppm ([2]; SAW, foliar, 32 ppm, 48 hours): 30%
mortality at 80 ppm ([2]; SAW, foliar, 80 ppm, 48 hours): 80%
mortality at 16 ppm ([3]; PA, foliar, 48 hours): 55%
mortality at 32 ppm ([3]; PA, foliar, 48 hours): 90%
LD50 [4]: 176 ng/insect
LD50 [5]: 193 ng/insect
LD50 [6]: 64 ng/insect
mortality at 16 ppm ([7]; MBB, foliar, 48 hours): 30%
mortality at 32 ppm ([7]; MBB, foliar, 48 hours): 35%
mortality at 80 ppm ([7]; MBB, foliar, 80 ppm, 48 hours): 75%
LD50 [8]: 121 ng/insect

CC1(C)[C@H](C(=O)OCc2cccc3c2CCc2ccccc2-3)[C@@H]1C=C(Cl)C(F)(F)F (relative stereo) [Ex. II (cis), (9,10-dihydro-1-phenanthryl)methyl cis-3-(2-chloro-3,3,3-trifluoromethyl-1-propenyl)-2,2-dimethylcyclopropanecarboxylate]
LD50 [1]: 61 ng/insect
mortality at 8 ppm ([2]; 48 h): 30%
mortality at 32 ppm ([2]; 48 h): 95%
mortality at 10 ppm ([3]; 48 h): 85%
LD50 [4]: 170 ng/insect
LD50 [5]: 45 ng/insect
mortality at 32 ppm ([9]; 48 h): 78%
LD50 [6]: 9.4 ng/insect
mortality at 8 ppm ([7]; 48 h): 90%
LD50 [8]: 36 ng/insect

CC1(C)[C@H](C=C(Cl)Cl)[C@@H]1C(=O)OCc1cccc2c1CCCc1ccccc1-2 (relative stereo) [Ex. III (cis), (6,7-dihydro-5H-dibenzo[a,c]cyclohepten-4-yl)methyl cis-3-(2,2-dichloroethenyl)-2,2-dimethylcyclopropanecarboxylate]
LD50 [1]: 62 ng/insect
mortality at 4.5 ppm ([2]; SAW, foliar, 4.5 ppm, 48 hours): 5%
mortality at 10 ppm ([2]; SAW, foliar, 10 ppm, 48 hours): 40%
mortality at 4.5 ppm ([3]; PA, foliar, 4.5 ppm, 48 hours): 55%
mortality at 10 ppm ([3]; PA, foliar, 10 ppm, 48 hours): 90%
LD50 [4]: 104 ng/insect
LD50 [5]: 375 ng/insect
mortality at 10 ppm ([9]; TSM, foliar, 10 ppm, 48 hours): 13%
LD50 [6]: 11 ng/insect
mortality at 4.5 ppm ([7]; MBB, foliar, 4.5 ppm, 48 hours): 55%
mortality at 10 ppm ([7]; MBB, foliar, 10 ppm, 48 hours): 85%
LD50 [8]: 96 ng/insect

CC1(C)[C@@H](C=C(Cl)Cl)[C@@H]1C(=O)OCc1cccc2c1CCCc1ccccc1-2 (relative stereo) [Ex. III (trans), (6,7-dihydro-5H-dibenzo[a,c]cyclohepten-4-yl)methyl trans-3-(2,2-dichloroethenyl)-2,2-dimethylcyclopropanecarboxylate]
LD50 [1]: 92 ng/insect
mortality at 4 ppm ([2]; SAW, foliar, 48 hours): 10%
mortality at 16 ppm ([2]; SAW, foliar, 48 hours): 100%
mortality at 4 ppm ([3]; PA, foliar, 48 hours): 80%
mortality at 16 ppm ([3]; PA, foliar, 48 hours): 90%
LD50 [4]: 315 ng/insect
LD50 [5]: 355 ng/insect
LD50 [6]: 50 ng/insect
mortality at 4 ppm ([7]; MBB, foliar, 48 hours): 20%
mortality at 16 ppm ([7]; MBB, foliar, 48 hours): 55%
LD50 [8]: 95 ng/insect

CC1(C)[C@H](C(=O)OCc2cccc3c2CCCc2ccccc2-3)[C@@H]1C=C(Cl)C(F)(F)F (relative stereo) [Ex. IV (cis), (6,7-dihydro-5H-dibenzo[a,c]cyclohepten-4-yl)methyl cis-3-(2-chloro-3,3,3-trifluoromethyl-1-propenyl)-2,2-dimethylcyclopropanecarboxylate]
LD50 [1]: 64 ng/insect
mortality at 10 ppm ([2]; 48 h): 75%
mortality at 0.25 ppm ([3]; 48 h): 80%
LD50 [4]: 83 ng/insect
LD50 [5]: 212 ng/insect
mortality at 2.1 ppm ([9]; 48 h): 4%
mortality at 10 ppm ([9]; 48 h): 100%
LD50 [6]: 4.26 ng/insect
mortality at 2.1 ppm ([7]; 48 h): 100%
LD50 [8]: 54 ng/insect

CC1(C)[C@H](C(=O)OCc2cccc3c2Cc2ccccc2-3)[C@@H]1C=C(Cl)Cl (relative stereo) [Ex. V (cis), 9H-fluorene-1-methyl cis-3-(2,2-dichloroethenyl)-2,2-dimethylcyclopropanecarboxylate]
mortality at 64 ppm ([2]; 48 h): 0%
mortality at 500 ppm ([2]; 48 h): 100%
mortality at 64 ppm ([3]; 48 h): 30%
mortality at 500 ppm ([3]; 48 h): 90%
mortality at 500 ppm ([9]; 48 h): 0%
LD50 [6]: 3320 ng/insect
mortality at 64 ppm ([7]; 48 h): 0%
LD50 [8]: 460 ng/insect

CC1(C)[C@@H](C=C(Cl)Cl)[C@@H]1C(=O)OCc1cccc2c1Cc1ccccc1-2 (relative stereo) [Ex. V (trans), 9H-fluorene-1-methyl trans-3-(2,2-dichloroethenyl)-2,2-dimethylcyclopropanecarboxylate]
mortality at 64 ppm ([2]; 48 h): 0%
mortality at 500 ppm ([2]; 48 h): 25%
mortality at 64 ppm ([3]; 48 h): 20%
mortality at 500 ppm ([3]; 48 h): 0%
mortality at 500 ppm ([9]; 48 h): 0%
mortality at 64 ppm ([7]; 48 h): 15%

CC1(C)[C@H](C(=O)OCc2cccc3c2Cc2ccccc2-3)[C@@H]1C=C(Cl)C(F)(F)F (relative stereo) [Ex. VI (cis), 9H-fluorene-1-methyl cis-3-(2-chloro-3,3,3-trifluoromethyl-1-propenyl)-2,2-dimethylcyclopropanecarboxylate]
mortality at 64 ppm ([2]; 48 h): 95%
mortality at 500 ppm ([2]; 48 h): 100%
mortality at 64 ppm ([3]; 48 h): 50%
mortality at 500 ppm ([3]; 48 h): 90%
mortality at 500 ppm ([9]; 48 h): 0%
LD50 [6]: 762 ng/insect
mortality at 64 ppm ([7]; 48 h): 0%
LD50 [8]: 1160 ng/insect

CC1(C)[C@H](C=C(Cl)C(F)(F)F)[C@@H]1C(=O)OCc1cccc2c1CCCCc1ccccc1-2 (relative stereo) [Ex. VII (cis), (5,6,7,8-tetrahydrodibenzo[a,c]cycloocten-4-yl)methyl cis-3-(2-chloro-3,3,3-trifluoropropenyl)-2,2-dimethylcyclopropanecarboxylate]
mortality at 4 ppm ([3]; PA, foliar, 48 hours): 0%
LD50 [4]: 396 ng/insect
mortality at 16 ppm ([9]; TSM, foliar, 48 hours): 24%
LD50 [6]: 20.6 ng/insect
mortality at 4 ppm ([7]; MBB, foliar, 48 hours): 95%
LD50 [8]: 410 ng/insect

CC1(C)[C@H](C=C(Cl)Cl)[C@@H]1C(=O)OCc1cccc(-c2ccccc2)c1 (relative stereo) [Ref., [(1,1biphenyl)-3-yl]methyl cis3-(2,2-dichloroethenyl)-2,2-dimethylcyclopropanecarboxylate, reference compound]
LD50 [1]: 560 ng/insect
mortality at 4 ppm ([2]; SAW, foliar, 48 hours): 90%
mortality at 32 ppm ([3]; PA, foliar, 48 hours): 70%
LD50 [4]: 620 ng/insect
LD50 [5]: 2330 ng/insect
mortality at 500 ppm ([9]; TSM, foliar, 500 ppm, 48 hours): 33%
LD50 [6]: 18 ng/insect
mortality at 32 ppm ([7]; MBB, foliar, 48 hours): 50%
LD50 [8]: 27 ng/insect

CC1(C)[C@H](C(=O)OCc2cccc3c2CCCCc2ccccc2-3)[C@@H]1C=C(Cl)Cl [Ex. VIII (1R,cis), (5,6,7,8-tetrahydrodibenzo[a,c]cycloocten-4-yl)methyl 1R,cis-3-(2,2-dichloroethenyl)-2,2-dimethylcyclopropanecarboxylate]
mortality at 4 ppm ([3]; PA, foliar, 48 hours): 0%
LD50 [4]: 460 ng/insect
mortality at 16 ppm ([9]; TSM, foliar, 48 hours): 14%
mortality at 4 ppm ([7]; MBB, foliar, 48 hours): 50%
LD50 [8]: 201 ng/insect

Reference: patent US4433182A, “Insecticidal 2,2'-bridged[1,1'-biphenyl]-3-ylmethyl esters” (FMC Corporation, priority 1981, dated 1984)
